Data: patent US20250205193A1, “THERAPEUTIC COMPOUND AND SALTS” (Regents of the University of Minnesota, priority 2022, published 2025)
Where two headings read alike, the source gives them in different places.

Columns and labels:
Balb-C mice = assay: Maximum tolerated dose study; format: in vivo; conditions: up to 40 mg/kg PO, q.d.
Experimental: A maximum tolerated dose study was conducted in Balb-C mice.

67NR cells = assay: Seahorse XFe96 respiratory experiments in permeabilized cells for pyruvate driven respiration (67NR); format: cell-based; conditions: read-out: inhibits pyruvate driven respiration, IC50
Experimental: 4T1 cells were seeded (20,000 cells/well) onto Seahorse XFe96 well plates and incubated overnight in growth media at 37° C. and 5% CO2 for adherence. […] For pyruvate driven respiration experiments, test compound was injected in port A, followed by rPFO (1 nM) in port B, followed by respective substrate cocktails (FCCP stimulated) in port C, and rotenone and antimycin A (0.5 μM) in port D. Final substrate concentrations for specific tests were as follows: (5 mM pyruvate, 0.5 mM malate, 2 mM dichloroacetate (DCA); 10 mM glutamate, 2 mM DCA; 2 μM rotenone).

mice = assay: Single dose acute toxicity study; format: in vivo; conditions: single dose 40 mg/kg PO
Experimental: Additionally, a single dose acute toxicity study (40 mg/kg PO, q.d.) was carried out.

[1] = for T1/2: PO 5.00 mg/kg; for F: in vivo, po, 5 mg/kg
Text: (§1) The pharmacokinetics and oral bioavailability of the compound of formula (I) were investigated in mouse following single intravenous and oral gavage.

in vivo = conditions: mouse
Text: as §1

Q: With `CN(Cc1ccc(C(F)(F)F)cc1)c1ccc2cc(C(=O)O)c(=O)oc2c1` [MN-D7] as the compound, how does the “body weight gains and grooming patterns” value (Balb-C mice) read?
A: normal body weight gains and grooming patterns

Q: What about the tolerability (Balb-C mice) of the same compound?
A: well tolerated

Q: And the IC50 (67NR cells)?
A: 17.8 ± 4.9 nM

Q: And the “toxicity upon examination of internal organs” value (mice)?
A: did not cause any toxicity issues

Q: What about the “HL_Lambda T1/2” value ([1]; G1-Male, IV 1.0 mg/kg) of the same compound?
A: 3.65 h

Q: And the T1/2 ([1]; G2-Female)?
A: 4.41 h

Q: What about the T1/2 ([1]; G2-Male) of the same compound?
A: 4.04 h

Q: What about the F ([1]; female, mouse) of the same compound?
A: 123.84%

Q: What about the F ([1]; male, mouse) of the same compound?
A: 124.96%

Q: What about the mean terminal half-life ([1]; mouse, female, IV dose) of the same compound?
A: 3.15 h

Q: And the AUC(0-inf) (in vivo; female, iv, 1 mg/kg)?
A: 626 ng·h/mL

Q: And the AUC(0-t) (in vivo; female, iv, 1 mg/kg)?
A: 552 ng·h/mL

Q: What about the C0 (in vivo; female, iv, 1 mg/kg) of the same compound?
A: 226 ng/mL

Q: What about the Cmax (in vivo; female, iv, 1 mg/kg) of the same compound?
A: 200 ng/mL

Q: What about the MRT inf (in vivo; female, iv, 1 mg/kg) of the same compound?
A: 4.34 h

Q: What about the MRT last (in vivo; female, iv, 1 mg/kg) of the same compound?
A: 2.95 h

Q: What about the Tmax (in vivo; female, iv, 1 mg/kg) of the same compound?
A: 0.08 h

Q: What about the clearance (in vivo; female, iv, 1 mg/kg) of the same compound?
A: 26.6 mL/min/kg

Q: What about the half-life (in vivo; female, iv, 1 mg/kg) of the same compound?
A: 3.15 h

Q: What about the Vd (in vivo; female, iv, 1 mg/kg, Vss_obs Vss) of the same compound?
A: 6.92 L/kg

Q: And the Vd (in vivo; female, iv, 1 mg/kg, Vz_obs Vz)?
A: 7.26 L/kg

Q: What about the bioavailability (in vivo; female, po) of the same compound?
A: ~124%

Q: And the half-life (in vivo; female, po)?
A: 4.41 h

Q: What about the AUC(0-inf) (in vivo; female, po, 5 mg/kg) of the same compound?
A: 3480 ng·h/mL

Q: And the AUC(0-t) (in vivo; female, po, 5 mg/kg)?
A: 3420 ng·h/mL

Q: What about the Cmax (in vivo; female, po, 5 mg/kg) of the same compound?
A: 1450 ng/mL

Q: What about the MRT inf (in vivo; female, po, 5 mg/kg) of the same compound?
A: 4.39 h

Q: What about the MRT last (in vivo; female, po, 5 mg/kg) of the same compound?
A: 3.88 h

Q: And the Tmax (in vivo; female, po, 5 mg/kg)?
A: 0.08 h

Q: What about the half-life (in vivo; male, iv) of the same compound?
A: 3.65 h

Q: What about the AUC(0-inf) (in vivo; male, iv, 1 mg/kg) of the same compound?
A: 486 ng·h/mL

Q: And the AUC(0-t) (in vivo; male, iv, 1 mg/kg)?
A: 413 ng·h/mL

Q: What about the C0 (in vivo; male, iv, 1 mg/kg) of the same compound?
A: 185 ng/mL

Q: What about the Cmax (in vivo; male, iv, 1 mg/kg) of the same compound?
A: 160 ng/mL

Q: And the MRT inf (in vivo; male, iv, 1 mg/kg)?
A: 4.97 h

Q: What about the MRT last (in vivo; male, iv, 1 mg/kg) of the same compound?
A: 3.17 h

Q: And the Tmax (in vivo; male, iv, 1 mg/kg)?
A: 0.08 h

Q: And the clearance (in vivo; male, iv, 1 mg/kg)?
A: 34.3 mL/min/kg

Q: And the Vd (in vivo; male, iv, 1 mg/kg, Vss_obs Vss)?
A: 10.2 L/kg

Q: What about the Vd (in vivo; male, iv, 1 mg/kg, Vz_obs Vz) of the same compound?
A: 10.8 L/kg

Q: And the bioavailability (in vivo; male, po)?
A: ~125%

Q: What about the half-life (in vivo; male, po) of the same compound?
A: 4.04 h

Q: What about the AUC(0-inf) (in vivo; male, po, 5 mg/kg) of the same compound?
A: 2610 ng·h/mL

Q: What about the AUC(0-t) (in vivo; male, po, 5 mg/kg) of the same compound?
A: 2580 ng·h/mL

Q: And the Cmax (in vivo; male, po, 5 mg/kg)?
A: 890 ng/mL

Q: And the MRT inf (in vivo; male, po, 5 mg/kg)?
A: 4.33 h

Q: What about the MRT last (in vivo; male, po, 5 mg/kg) of the same compound?
A: 4.07 h

Q: What about the Tmax (in vivo; male, po, 5 mg/kg) of the same compound?
A: 0.25 h
